In patent US20260209299A1, “TROP2 IMMUNOGENIC PEPTIDE” (ASTON SCIENCE INC., priority 2023, published 2026):

Experiments:
[1] = test system: Type 1 helper T cells (CD4^+IFN-γ^+); assay: FACS analysis of Type 1 helper T cells (CD4+IFN-γ+) after peptide treatment of PBMCs; format: cell-based, human
Method: (§1) To this end, the degree of stimulation of Type 1 helper T cells (CD4^+IFN-γ^+), stimulation of interleukin 10 (IL-10)-producing regulatory T cells (CD4^+IL-10+), stimulation of regulatory T cells (CD4^+CD25^+Foxp3^+), and stimulation of Type 2 helper T cells secreting IL-4 and Th17 cells secreting IL-17 according to the treatment with the immunogenic peptide were confirmed.
(§2) Healthy human peripheral blood mononuclear cells (PBMCs; 2,000,000 cells per well) were cultured in 96× round bottom well plates in the presence or absence of anti-CD3 (clone HIT) and peptide at the indicated ratios.
(§3) Specifically, the peptide synthesized in Example 1 at a concentration of 10 μg/ml was cultured with 1 μg/ml of anti-CD3 in a 37° C. incubator for 72 hours. The culture medium consisted of complete RPMI1640 medium supplemented with 10% fetal bovine serum, 10 mM HEPES, 50 µM B-ME, and penicillin/streptomycin/L-glutamine. After 72 hours of culture, the cells were stimulated with Phorbol 12-myristate 13-acetate (50 ng/ml) and Ionomycine (1 μg/mL), which are intracellular cytokine secretion stimulators. To prevent cytokine secretion into the culture medium, the cells were co-stimulated with GolgiPlug, a protein transport inhibitor, at a concentration of 1/100 diluted in PBS for 6 hours in a 37° C. incubator. After stimulation, the cells were washed twice with PBS.
(§4) To determine only the viable cells among the PBMC cells, the cells were labeled with eFlor780-conjugated Fixable Viability dye diluted 1:100 in PBS for 15 minutes at 4° C., and washed twice with stain buffer after 15 minutes. After washing, the cells were surface-labeled with BV421-conjugated anti-CD4 (clone RPA-T4) and PE-Cy5-conjugated anti-CD25 (clone 2A3) antibodies diluted 1:100 in stain buffer for 30 minutes at 4° C. Then, the cells labeled with cell surface proteins were washed twice with stain buffer. Next, to detect cytokines secreted intracellularly, the cells were fixed for 1 hour at room temperature with fixation buffer and then washed with permeabilization buffer. To enable antibodies to detect intracellular cytokines, the fixed cells were labeled overnight at 4° C. with PerCP-Cy5. 5-conjugated anti-IFN-g (clone 4S. B3), Brilliant Violet 510-conjugated anti-IL-4 (clone MP4-25D2), anti-Foxp3 (clone PCH101), and PE-conjugated anti-IL-10 diluted 1:100 in permeabilization (clone JES3-19F1) buffer. Then, the cytokine-labeled cells were washed twice with stain buffer, and cell flow assays were performed using an Attune NxT Acoustic Focusing Cytometer (Invitrogen). Data analysis was performed using Flowjo v10.7.1 software (FlowJo).
1) Calculate the difference between the distribution of IFN-γ secreting T cells and the distribution of IL-10 secretion (A value),
2) Calculate the difference between the distribution of IFN-γ secreting T cells and the Treg distribution (B value),
3) Use the formula “(A value×0.8)+(B value×0.2)” as the final combined scoring, and
(§5) The activity results of the immunogenic peptide candidate group were confirmed by first isolating CD4^+ T cells (helper T cells) from PBMCs, and then classifying the isolated cells into Type 1 helper T cells (CD4^+IFN-γ^+), Type 2 helper T cells (CD4^+IL-4^+), regulatory T cells (CD4^+CD25^+Foxp3^+), and interleukin-10 (IL-10)-producing regulatory T cells (CD4^+IL-10^+) and analyzing the results.

[2] = test system: interleukin 10 (IL-10)-producing regulatory T cells (CD4^+IL-10^+); assay: FACS analysis of IL-10-producing regulatory T cells (CD4+IL-10+) after peptide treatment of PBMCs; format: cell-based; conditions: healthy human PBMCs, peptide 10 μg/ml with 1 μg/ml anti-CD3, 72 hours, then PMA/ionomycin + GolgiPlug 6 hours
Method: as §2, §3, §4

[3] = test system: regulatory T cells (CD4^+CD25^+Foxp3^+); assay: FACS analysis of regulatory T cells (CD4+CD25+Foxp3+) after peptide treatment of PBMCs; format: cell-based; conditions: healthy human PBMCs, peptide 10 μg/ml with 1 μg/ml anti-CD3, 72 hours, then PMA/ionomycin + GolgiPlug 6 hours
Method: as §1, §2, §3, §4, §5

[4] = test system: Type 2 helper T cells (CD4^+IL-4^+); assay: FACS analysis of Type 2 helper T cells (CD4+IL-4+) after peptide treatment of PBMCs; format: cell-based, human; conditions: FIG. 2; peptide together with PMA, ionomycin
Method: as §1, §2, §3
as §4, with “(FlowJo). […]” for “(FlowJo).”

[5] = test system: interferon-gamma (IFN-γ)-forming T cells; assay: ELISpot assay of IFN-γ-forming T cells using PBMC; format: cell-based; conditions: FIG. 5; human PBMCs, peptide 10 μg/mL, 70-72 hours
Method: The frequency of interferon-gamma (IFN-γ, 3420-4HPW-10, MabTech, Stockholm, Sweden) and interleukin-10 (IL-10, 3430-4HPW-10, MabTech)-forming T cells was assessed using the ELISpot assay.
Specifically, the pre-coated plates were washed four times with 200 μL/well of PBS. Human PBMCs (PCS-800-011, ATCC, Virginia, USA) 2×10^6/mL were dispensed onto the coated plate, and TROP2 peptides were dispensed at 10 μg/mL each and reacted with the PBMCs. The plate reacted under a total volume of 200 μL/well was incubated at 5% CO2, 37° C. for 70-72 hours. Then, the plate was washed 5 times with 200 μL of PBS, and 200 μL of diluted detection antibody (IFN-γ:7-B6-1-biotin; IL-10:12G8-biotin) was added to the wells of the plate, and then reacted at room temperature for 2 hours. After the reaction, the plate was washed 5 times with 200 μL of PBS, and 1:1000 diluted streptavidin-HRP was added at 100 μL/well, followed by reaction at room temperature for 1 hour. Then, the resulting product was washed 5 times with 200 μL of PBS, 100 μL/well of TMB substrate solution was added and reacted at RT for up to 5-10 minutes, and then the spots were counted using the AID iSpot reader system (AID, Strassberg, Germany).

[6] = test system: MDA-MB-231 cell line; assay: Antitumor effect of cancer vaccine alone in Xenograft cancer mouse model; format: in vivo, athymic Balb/C nude mice; conditions: peptide + CFA/IFA + mGM-CSF, 100 μg per mouse subcutaneously on days 1, 8, 15, 22; vs control group G1
Method: (§6) Five-week-old athymic Balb/C nude mice weighing 16 to 18 g were purchased and acclimated for at least 3 to 7 days.
(§7) The MDA-MB-231 cell line, a human-derived triple-negative breast cancer cell line, was suspended at 5×10^6 cells per individual in 200 μl of a 1:1 mixture of PBS and Matrigel and injected subcutaneously into the axillary region between the right scapular area and the thoracic wall of the mouse.
On Day 16 after MDA-MB-231 cell transplantation, 32 mice (mean tumor size 143.8±2.9 mm^3) with tumor sizes reaching approximately 150 mm^3 were selected and assigned to each group of 8 mice.
Each group was divided into Group 1 (G1): PBS+CFA/IFA, Group 2 (G2): SEQ ID NO: 3 peptide+CFA/IFA+mGM-CSF, Group 3 (G3): SEQ ID NO: 10 peptide+CFA/IFA+mGM-CSF, and Group 4 (G4): SEQ ID NO: 17 peptide+CFA/IFA+mGM-CSF.
(§8) Next, the immunogenic peptide (TROP2 peptide) according to the present invention was administered subcutaneously at a dose of 100 μg per mouse on days 1, 8, 15, and 22 (the 16th day after cell transplantation was designated as Day 0, and the following day was designated as Day 1) for a total of 4 times, and the tumor size for each individual was calculated 11 times (0, 1, 4, 7, 11, 14, 18, 21, 25, 28, and 32) from Day 0 to Day 32. Then, the tumor growth change rate was calculated by comparison with the control group of each Test Group.

[7] = test system: MDA-MB-231 cell line; assay: Antitumor effect of cancer vaccine and antibody-drug conjugate (ADC) in Xenograft cancer mouse model; format: in vivo, athymic Balb/C nude mice; conditions: peptide mix + CFA/IFA + mGM-CSF subcutaneously days 1, 8, 15, 22; Trodelvy 0.81 mg/kg intravenously Days 4 and 11
Method: as §6, §7, §8
In order to confirm the antitumor effect of the combination therapy of the immunogenic peptide discovered in the present invention and antibody-drug conjugate (ADC), the antitumor effect was analyzed for the following groups using the same experimental method as in Example 4. […]

Substance	Combined Score ([1]; (A value×0.8)+(B value×0.2))	IFN-gamma − IL-10 ([1]; A value: difference between distribution of IFN-γ secreting T cells and distribution of IL-10 secretion)	IFN-gamma − Treg ([1]; B value: difference between distribution of IFN-γ secreting T cells and Treg distribution)	IFN-gamma (Th1, CD4+) ([1]; FACS, healthy human PBMCs, peptide 10 μg/ml with 1 μg/ml anti-CD3, 72 hours, then PMA/ionomycin + GolgiPlug 6 hours)	stimulation of Type 1 helper T cells (CD4+IFN-γ+), flow cytometry plot ([1]; FIG. 1, peptide together with PMA, ionomycin)	effect of stimulating Type 1 helper T cells while not stimulating Type 2 helper T cells and regulatory T cells ([1]; overall FACS conclusion, Table 2)	IL-10 (Th2, CD4+) [2]	Treg (CD25+/Foxp3) [3]	stimulation of Type 2 helper T cells (CD4+IL-4+), flow cytometry plot [4]	number of cells secreting IFN-γ (ELISpot spots) [5]	TGI rate (%) at Day 32 [6]	TGI rate (%) at Day 32 [7]
PLRLPLLLLVLAAVTGHTAAQD [SEQ ID NO: 3]	20.36	21.66%	15.16%	24.00%	stimulated Type 1 helper T cells (CD4^+IFN-γ^+) to a high degree	most excellent	2.34%	8.84%	hardly stimulated Type 2 helper T cells (CD4^+IL-4^+)	dramatically increased the secretion of IFN-γ	52.4%	–
sacituzumab govitecan [Trodelvy]	–	–	–	–	–	–	–	–	–	–	–	46.1%
